Measurements reported in patent US20090105305A1, “Therapeutic Agents - 550” (AstraZeneca AB, priority 2006, published 2009).

Biological target: T1, human Fatty Acid Synthase (Homo sapiens, UniProt P49327)
T1 construct: made in house
Assay: Human FAS enzyme assay (decrease in NADPH fluorescence)
Assay type: biochemical
Conditions: % inhibition at a concentration of 100 micromolar
Excerpt: The compounds of the present invention are Fatty Acid Synthase inhibitors. […] Human and Rat FAS Enzyme Assay.
Fatty acid synthase is an enzyme complex that harbours seven enzymatic activities catalysing the reductive synthesis of long chain fatty acids from acetyl CoA and malonyl CoA to palmitate. When acetyl CoA and malonyl CoA are forming palmitate NADPH is consumed forming NADP. Since NADPH is fluorescent but not NADP the reaction can be measured by analysing the decrease in fluorescence.
Compounds were added to a black 384 well plate (Matrix) in a volume of 5 μl consisting of 20% DMSO and 80% Tris buffer pH 7.5, at a top concentration of 1 mM. NADPH, 30 μl of 166.6 μM, formulated in assay buffer (0.1M Tris ph7.5, 0.1 mM EDTA, 1 mM glutathione, 0.05% BSA), was then added to all of the wells of the plate. Fatty acid synthase Human or rat enzyme (0.4 μg, produced in house), dissolved in 20 mM Tris/HCl pH 7.5, 5 mM BOG, 1 mM TCEP, 10% glycerol, 1 mM EDTA, 150 mM NaCl, was then added to the plate in a volume of […]. Enzyme was added to all but the last two columns of the plate, to which, 10 μl of assay buffer was added (0.1M Tris ph7.5, 0.1 mM EDTA, 1 mM glutathione, 0.05% BSA) to provide a no enzyme assay control. Following a 15-minute incubation period, at room temperature, the plates were read on an Envision plate reader using 340 nm excitation and 460 nm emission filters. This served as a time zero background read. Substrates (an equal mix of both malonyl and acetyl CoA) were then added to the plates in a total volume of 5 μl. The concentrations of malonyl and acetyl CoA in the mixture were 500 μM and 150 μM respectively. Both were prepared as 10 mM stock solutions in distilled water and were subsequently diluted to working concentrations in assay buffer. Plates were then incubated for a further 60 minutes, at room temperature, before being read again on the Envision reader using the same parameters as previously used. The data was analysed by subtracting the background time zero data from that generated following the final 60 minute incubate and the percent inhibition compared to the maximum and minimum assay controls was determined. Sigmoid curves were fitted using Origin 7.5 Client software and IC50 values were determined.

T1 sequence (P49327 whole entry): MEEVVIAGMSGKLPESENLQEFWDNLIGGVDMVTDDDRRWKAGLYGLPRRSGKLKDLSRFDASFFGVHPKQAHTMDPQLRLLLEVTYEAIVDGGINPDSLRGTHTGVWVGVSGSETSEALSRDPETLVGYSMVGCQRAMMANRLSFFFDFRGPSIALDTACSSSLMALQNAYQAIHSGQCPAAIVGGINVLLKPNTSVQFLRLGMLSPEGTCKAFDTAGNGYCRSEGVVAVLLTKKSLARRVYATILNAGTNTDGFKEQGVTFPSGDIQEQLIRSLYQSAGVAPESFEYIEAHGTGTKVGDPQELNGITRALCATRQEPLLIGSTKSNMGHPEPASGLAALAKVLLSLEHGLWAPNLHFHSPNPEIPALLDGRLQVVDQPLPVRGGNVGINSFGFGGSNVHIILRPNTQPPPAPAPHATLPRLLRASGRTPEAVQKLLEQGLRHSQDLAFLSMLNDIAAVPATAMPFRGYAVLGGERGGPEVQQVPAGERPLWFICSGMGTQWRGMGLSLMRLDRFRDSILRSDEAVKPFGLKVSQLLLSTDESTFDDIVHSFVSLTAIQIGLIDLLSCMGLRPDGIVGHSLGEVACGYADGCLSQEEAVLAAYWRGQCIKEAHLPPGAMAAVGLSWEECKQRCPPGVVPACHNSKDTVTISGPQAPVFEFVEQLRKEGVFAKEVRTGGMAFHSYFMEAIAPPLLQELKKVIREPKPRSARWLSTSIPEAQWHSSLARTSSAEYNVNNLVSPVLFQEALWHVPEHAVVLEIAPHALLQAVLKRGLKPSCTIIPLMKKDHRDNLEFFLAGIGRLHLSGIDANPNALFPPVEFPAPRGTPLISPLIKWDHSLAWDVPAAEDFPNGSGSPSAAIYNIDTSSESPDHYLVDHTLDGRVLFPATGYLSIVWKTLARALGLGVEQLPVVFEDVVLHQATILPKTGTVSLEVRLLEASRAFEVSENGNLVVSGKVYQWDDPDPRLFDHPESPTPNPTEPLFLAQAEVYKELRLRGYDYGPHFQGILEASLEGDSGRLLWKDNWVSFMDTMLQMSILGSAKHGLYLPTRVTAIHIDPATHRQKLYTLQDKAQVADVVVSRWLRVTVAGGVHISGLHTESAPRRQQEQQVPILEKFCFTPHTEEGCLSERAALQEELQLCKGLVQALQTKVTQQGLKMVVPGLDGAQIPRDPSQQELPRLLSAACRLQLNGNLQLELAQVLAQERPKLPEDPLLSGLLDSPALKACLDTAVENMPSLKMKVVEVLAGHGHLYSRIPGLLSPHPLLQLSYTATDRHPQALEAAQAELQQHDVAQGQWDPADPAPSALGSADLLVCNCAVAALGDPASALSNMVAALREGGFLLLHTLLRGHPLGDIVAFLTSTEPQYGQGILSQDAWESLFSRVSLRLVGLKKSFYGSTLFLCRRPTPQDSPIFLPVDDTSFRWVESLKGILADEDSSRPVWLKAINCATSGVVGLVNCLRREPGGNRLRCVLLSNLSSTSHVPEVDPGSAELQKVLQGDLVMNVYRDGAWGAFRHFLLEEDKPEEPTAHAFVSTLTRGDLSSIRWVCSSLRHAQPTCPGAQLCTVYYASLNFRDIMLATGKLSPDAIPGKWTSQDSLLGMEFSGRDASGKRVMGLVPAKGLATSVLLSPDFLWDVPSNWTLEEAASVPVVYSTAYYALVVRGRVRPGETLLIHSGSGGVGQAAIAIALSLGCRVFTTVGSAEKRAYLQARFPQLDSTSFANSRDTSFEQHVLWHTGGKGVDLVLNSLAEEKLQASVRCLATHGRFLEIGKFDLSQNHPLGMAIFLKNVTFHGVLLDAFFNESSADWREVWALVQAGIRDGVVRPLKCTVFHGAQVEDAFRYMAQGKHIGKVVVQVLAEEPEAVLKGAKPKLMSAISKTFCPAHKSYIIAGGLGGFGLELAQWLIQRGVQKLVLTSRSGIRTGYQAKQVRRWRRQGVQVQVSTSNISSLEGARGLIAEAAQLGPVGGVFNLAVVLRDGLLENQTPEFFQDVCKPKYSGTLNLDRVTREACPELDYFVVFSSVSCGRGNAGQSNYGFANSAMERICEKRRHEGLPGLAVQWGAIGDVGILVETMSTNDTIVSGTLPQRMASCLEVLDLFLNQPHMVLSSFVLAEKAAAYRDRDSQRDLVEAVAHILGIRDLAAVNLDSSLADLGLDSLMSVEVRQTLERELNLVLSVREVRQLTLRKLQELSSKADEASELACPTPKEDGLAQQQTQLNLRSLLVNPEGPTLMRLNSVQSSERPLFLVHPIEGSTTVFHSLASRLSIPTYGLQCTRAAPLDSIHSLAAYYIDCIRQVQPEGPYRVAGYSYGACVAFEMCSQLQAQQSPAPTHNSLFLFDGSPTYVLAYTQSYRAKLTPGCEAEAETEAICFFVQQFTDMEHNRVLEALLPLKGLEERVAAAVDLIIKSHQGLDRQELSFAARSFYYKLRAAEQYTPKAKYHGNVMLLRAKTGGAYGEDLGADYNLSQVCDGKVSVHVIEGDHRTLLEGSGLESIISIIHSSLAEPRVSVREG

| inhibition at 100 µM | Compound |
| --- | --- |
| 83% | Cc1ccc(NS(=O)(=O)c2ccc(C#N)cc2)cc1C(=O)N1CCC(c2ccc(C#N)cc2)CC1 [Example 49, 4-cyano-N-[3-[4-(4-cyanophenyl)piperidine-1-carbonyl]-4-methyl-phenyl]benzenesulfonamide] |
| 87% | COc1ccccc1S(=O)(=O)Nc1ccc(C)c(C(=O)N2CCC(c3ccc(C#N)cc3)CC2)c1 [Example 50, N-[3-[4-(4-cyanophenyl)piperidine-1-carbonyl]-4-methyl-phenyl]-2-methoxy-benzenesulfonamide] |
| 94% | Cc1ccc(NS(=O)(=O)Cc2ccccc2F)cc1C(=O)N1CCC(c2ccc(C#N)cc2)CC1 [Example 51, N-[3-[4-(4-cyanophenyl)piperidine-1-carbonyl]-4-methyl-phenyl]-1-(2-fluorophenyl)methanesulfonamide] |
| 91% | Cc1ccc(NS(=O)(=O)Cc2cccc(F)c2)cc1C(=O)N1CCC(c2ccc(C#N)cc2)CC1 [Example 52, N-[3-[4-(4-cyanophenyl)piperidine-1-carbonyl]-4-methyl-phenyl]-1-(3-fluorophenyl)methanesulfonamide] |
| 84% | Cc1ccc(NS(=O)(=O)c2ccc3c(c2)CC(=O)N3)cc1C(=O)N1CCC(c2ccc(C#N)cc2)CC1 [Example 53, N-[3-[4-(4-cyanophenyl)piperidine-1-carbonyl]-4-methyl-phenyl]-2-oxo-1,3-dihydroindole-5-sulfonamide] |
| 84% | Cc1ccc(NS(=O)(=O)Cc2ccc(S(C)(=O)=O)cc2)cc1C(=O)N1CCC(c2ccc(C#N)cc2)CC1 [Example 54, N-[3-[4-(4-cyanophenyl)piperidine-1-carbonyl]-4-methyl-phenyl]-1-(4-methylsulfonylphenyl)methanesulfonamide] |
| 79% | Cc1ccc(NS(=O)(=O)CC(F)(F)F)cc1C(=O)N1CCC(c2ccc(C#N)cc2)CC1 [Example 55, N-[3-[4-(4-cyanophenyl)piperidine-1-carbonyl]-4-methyl-phenyl]-2,2,2-trifluoro-ethanesulfonamide] |
| 89% | Cc1ccc(NS(=O)(=O)Cc2ccc(F)cc2F)cc1C(=O)N1CCC(c2ccc(C#N)cc2)CC1 [Example 56, N-[3-[4-(4-cyanophenyl)piperidine-1-carbonyl]-4-methyl-phenyl]-1-(2,4-difluorophenyl)methanesulfonamide] |
| 94% | Cc1ccc(NS(=O)(=O)CC(C)C)cc1C(=O)N1CCC(c2ccc(C#N)cc2)CC1 [Example 57, N-[3-[4-(4-cyanophenyl)piperidine-1-carbonyl]-4-methyl-phenyl]-2-methyl-propane-1-sulfonamide] |
| 92% | Cc1ccc(NS(=O)(=O)CCc2ccccc2)cc1C(=O)N1CCC(c2ccc(C#N)cc2)CC1 [Example 58, N-[3-[4-(4-cyanophenyl)piperidine-1-carbonyl]-4-methyl-phenyl]-2-phenyl-ethanesulfonamide] |
| 89% | CCCC(C)S(=O)(=O)Nc1ccc(C)c(C(=O)N2CCC(c3ccc(C#N)cc3)CC2)c1 (stereo not shown) [Example 59, N-[3-[4-(4-cyanophenyl)piperidine-1-carbonyl]-4-methyl-phenyl]pentane-2-sulfonamide] |
| 83% | Cc1ccc(C(=O)N2CCC(c3ccc(C#N)cc3)CC2)cc1NS(=O)(=O)CC(F)(F)F [Example 60, N-[5-[4-(4-cyanophenyl)piperidine-1-carbonyl]-2-methyl-phenyl]-2,2,2-trifluoro-ethanesulfonamide] |
| 93% | Cc1ccc(C(=O)N2CCC(c3ccc(C#N)cc3)CC2)cc1NS(=O)(=O)Cc1ccc(F)cc1F [Example 61, N-[5-[4-(4-cyanophenyl)piperidine-1-carbonyl]-2-methyl-phenyl]-1-(2,4-difluorophenyl)methanesulfonamide] |
| 82% | Cc1ccc(C(=O)N2CCC(c3ccc(C#N)cc3)CC2)cc1NS(=O)(=O)Cc1ccc(S(C)(=O)=O)cc1 [Example 62, N-[5-[4-(4-cyanophenyl)piperidine-1-carbonyl]-2-methyl-phenyl]-1-(4-methylsulfonylphenyl)methanesulfonamide] |
| 85% | CCCC(C)S(=O)(=O)Nc1cc(C(=O)N2CCC(c3ccc(C#N)cc3)CC2)ccc1C (stereo not shown) [Example 63, N-[5-[4-(4-cyanophenyl)piperidine-1-carbonyl]-2-methyl-phenyl]pentane-2-sulfonamide] |
| 83% | Cc1ccc(C(=O)N2CCC(c3ccc(C#N)cc3)CC2)cc1NS(=O)(=O)CC(C)C [Example 64, N-[5-[4-(4-cyanophenyl)piperidine-1-carbonyl]-2-methyl-phenyl]-2-methyl-propane-1-sulfonamide] |
| 80% | N#Cc1ccc(C2CCN(C(=O)c3cccc(NS(=O)(=O)Cc4ccccc4)c3)CC2)cc1 [Example 66, N-[3-[4-(4-cyanophenyl)piperidine-1-carbonyl]phenyl]-1-phenyl-methanesulfonamide] |
| 92% | Cc1ccc(C(=O)N2CCC(c3ccc(C#N)cc3)CC2)cc1NS(=O)(=O)CCCN1CCOCC1 [Example 67, N-[5-[4-(4-cyanophenyl)piperidine-1-carbonyl]-2-methyl-phenyl]-3-morpholin-4-yl-propane-1-sulfonamide] |
| 74% | Cc1ccc(C(=O)N2CCC(c3ccc(S(C)(=O)=O)cc3)CC2)cc1NS(C)(=O)=O [Example 68, N-[2-methyl-5-[4-(4-methylsulfonylphenyl)piperidine-1-carbonyl]phenyl]methanesulfonamide] |
| 82% | Cc1ccc(NS(=O)(=O)C2CCS(=O)(=O)C2)cc1C(=O)N1CCC(c2ccc(C#N)cc2)CC1 (stereo not shown) [Example 69, N-[3-[4-(4-cyanophenyl)piperidine-1-carbonyl]-4-methyl-phenyl]-1,1-dioxo-thiolane-3-sulfonamide] |
| 87% | Cc1ccc(C(=O)N2CCC(O)(c3ccc(C#N)cc3)CC2)cc1NS(=O)(=O)Cc1ccccc1 [Example 70, N-[5-[4-(4-cyanophenyl)-4-hydroxy-piperidine-1-carbonyl]-2-methyl-phenyl]-1-phenyl-methanesulfonamide] |
| 100% | Cc1ccc(C(=O)N2CCC(c3ccc(C#N)cc3)CC2)cc1NS(=O)(=O)CCN1C(=O)c2ccccc2C1=O [Example 71, N-[5-[4-(4-cyanophenyl)piperidine-1-carbonyl]-2-methyl-phenyl]-2-(1,3-dioxoisoindol-2-yl)ethanesulfonamide] |
| 93% | Cc1ccc(C(=O)N2CCC(c3ccc(C#N)cc3)CC2)cc1NS(=O)(=O)CCN [Example 72, 2-amino-N-[5-[4-(4-cyanophenyl)piperidine-1-carbonyl]-2-methyl-phenyl]ethanesulfonamide] |
| 94% | Cc1ccc(C(=O)N2CCC(c3ccc(C#N)cc3)CC2)cc1NS(=O)(=O)CCCNC(C)C [Example 73, N-[5-[4-(4-cyanophenyl)piperidine-1-carbonyl]-2-methyl-phenyl]-3-(propan-2-ylamino)propane-1-sulfonamide] |
| 95% | Cc1ccc(C(=O)N2CCC(c3ccc(C#N)cc3)CC2)cc1NS(=O)(=O)CCCN(C)C [Example 74, N-[5-[4-(4-cyanophenyl)piperidine-1-carbonyl]-2-methyl-phenyl]-3-dimethylamino-propane-1-sulfonamide] |
